Reference: PubChem BioAssay AID330 (DTP/NCI, 2004)
Values joined by “and” are separate entries in the source; they are usually repeats but may differ in a detail not shown here. Equal entries are not always repeated. Toxic doses and inconclusive results are not listed. Rule for the calls: active = survival T/C of 150% or more; inactive = T/C below 125% in these data.

Test system: P388 leukemia ip, CD2F1 mice, survival T/C
Assay: NCI In Vivo Anticancer Drug Screen. Data for tumor model P388 Leukemia (intraperitoneal) in CD2F1 (CDF1) mice
Conditions: endpoint: median survival time, higher = longer survival
How it was run: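 Mice carrying the transplanted tumor received test compound or vehicle. Survival was recorded in each group, and the value is the treated-group measurement divided by that of the vehicle-treated control group.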

[1] = dose: 50.0 mg/kg/injection, schedule: Q01DX005 (ip), vehicle: saline with Tween-80
[2] = dose: 100.0 mg/kg/injection, schedule: Q01DX005 (ip), vehicle: saline with Tween-80
[3] = dose: 200.0 mg/kg/injection, schedule: Q01DX005 (ip), vehicle: saline with Tween-80
[4] = dose: 50.0 mg/kg/injection, schedule: Q01DX005 (ip), vehicle: Klucel (hydroxypropylcellulose) (HPC)
[5] = dose: 100.0 mg/kg/injection, schedule: Q01DX005 (ip), vehicle: Klucel (hydroxypropylcellulose) (HPC)
[6] = dose: 200.0 mg/kg/injection, schedule: Q01DX005 (ip), vehicle: Klucel (hydroxypropylcellulose) (HPC)
[7] = dose: 240.0 mg/kg/injection, schedule: Q01DX005 (ip), vehicle: saline with Tween-80
[8] = dose: 25.0 mg/kg/injection, schedule: Q04DX003 (ip), vehicle: Klucel (hydroxypropylcellulose) (HPC)
[9] = dose: 50.0 mg/kg/injection, schedule: Q04DX003 (ip), vehicle: Klucel (hydroxypropylcellulose) (HPC)
[10] = dose: 100.0 mg/kg/injection, schedule: Q04DX003 (ip), vehicle: Klucel (hydroxypropylcellulose) (HPC)
[11] = dose: 50.0 mg/kg/injection, schedule: Q01DX009 (ip), vehicle: Klucel (hydroxypropylcellulose) (HPC)
[12] = dose: 100.0 mg/kg/injection, schedule: Q01DX009 (ip), vehicle: Klucel (hydroxypropylcellulose) (HPC)
[13] = dose: 200.0 mg/kg/injection, schedule: Q01DX009 (ip), vehicle: Klucel (hydroxypropylcellulose) (HPC)
[14] = dose: 60.0 mg/kg/injection, schedule: Q01DX005 (ip), vehicle: saline with Tween-80
[15] = dose: 120.0 mg/kg/injection, schedule: Q01DX005 (ip), vehicle: saline with Tween-80

Measured: T/C

CCOc1ccccc1N=Nc1c(-c2ccccc2)nn(C(N)=S)c1-c1ccccc1
inactive: [1] 100 % of control | [2] 108 % of control | [3] 101 % of control

O=C(O)CNC(=O)OCC1c2ccccc2-c2ccccc21
inactive: [4] 100 % of control | [5] 95 % of control | [6] 100 % of control

CCN(CC)c1c(C)c(-c2ccccc2)oc(=O)c1Cl
inactive: [1] 100 % of control | [2] 100 % of control | [3] 115 % of control

O=C1C2CC=CCC2C(=O)N1SC(Cl)(Cl)Cl (stereo unspecified)
inactive: dose: 3.13 mg/kg/injection, schedule: Q01DX009 (ip), vehicle: saline with Tween-80 121 % of control | dose: 6.25 mg/kg/injection, schedule: Q01DX009 (ip), vehicle: saline with Tween-80 121 % of control | dose: 12.5 mg/kg/injection, schedule: Q01DX009 (ip), vehicle: saline with Tween-80 120 % of control

O=C1c2ccccc2C(=O)c2c(Nc3cccc(S(=O)(=O)N(CCO)CCO)c3)ccc(O)c21
inactive: dose: 25.0 mg/kg/injection, schedule: Q04DX002 (ip), vehicle: saline with Tween-80 99 % of control | dose: 50.0 mg/kg/injection, schedule: Q04DX002 (ip), vehicle: saline with Tween-80 93 % of control | dose: 100.0 mg/kg/injection, schedule: Q04DX002 (ip), vehicle: saline with Tween-80 92 % of control | dose: 200.0 mg/kg/injection, schedule: Q04DX002 (ip), vehicle: saline with Tween-80 93 % of control

CCN(CCO)CC(O)Cn1cnc2c(N)ncnc21 (stereo unspecified) (tested in a mixture with another compound)
inactive: dose: 60.0 mg/kg/injection, schedule: Q01DX005 (ip), vehicle: saline 97 % of control | dose: 120.0 mg/kg/injection, schedule: Q01DX005 (ip), vehicle: saline 100 % of control | dose: 240.0 mg/kg/injection, schedule: Q01DX005 (ip), vehicle: saline 95 % of control

CCC[CH2][Sn]1([CH2]CCC)[O]CC[S]1
inactive: dose: 3.12 mg/kg/injection, schedule: Q01DX009 (ip), vehicle: Klucel (hydroxypropylcellulose) (HPC) 116 % of control

O=C(NC(=S)Nc1ccc(CCO)cc1)c1cccc(Br)c1
inactive: dose: 3.75 mg/kg/injection, schedule: Q01DX005 (ip), vehicle: saline with Tween-80 91 % of control | dose: 7.5 mg/kg/injection, schedule: Q01DX005 (ip), vehicle: saline with Tween-80 90 % of control | dose: 15.0 mg/kg/injection, schedule: Q01DX005 (ip), vehicle: saline with Tween-80 87 % of control | [7] 92 % of control

COc1cc2c(c(OC)c1OC)-c1[nH]ncc1CC2
inactive: [8] 100 % of control | [9] 103 % of control | [10] 93 % of control and 94 % of control | dose: 400.0 mg/kg/injection, schedule: Q04DX003 (ip), vehicle: Klucel (hydroxypropylcellulose) (HPC) 93 % of control

Cc1nn(C(=O)c2ccncc2)c(C)c1N=Nc1ccc(Br)cc1
inactive: [11] 109 % of control | [12] 110 % of control | [13] 105 % of control

O=C1NC(c2ccccc2)(c2ccccc2)C(=O)N1CNc1ccccn1
inactive: [14] 91 % of control | [15] 89 % of control | [7] 88 % of control

O=C(O)Cc1noc2ccccc12
inactive: [8] 92 % of control | [9] 91 % of control | [10] 91 % of control | dose: 200.0 mg/kg/injection, schedule: Q04DX003 (ip), vehicle: Klucel (hydroxypropylcellulose) (HPC) 90 % of control

Cc1ccc(S(=O)(=O)N2OC2c2ccccc2C)cc1 (stereo unspecified)
inactive: [11] 107 % of control | [12] 106 % of control | [13] 103 % of control

CN1c2ccc(C=O)cc2Sc2cc(C=O)ccc21
inactive: [14] 91 % of control | [15] 91 % of control | [7] 90 % of control

C=C(C)C1CC/C(C)=C/CCC2(C)OC2CC/C(CO)=C\C1O (stereo unspecified)
inactive: dose: 8.0 mg/kg/injection, schedule: Q01DX009 (ip), vehicle: saline with Tween-80 113 % of control | dose: 16.0 mg/kg/injection, schedule: Q01DX009 (ip), vehicle: saline with Tween-80 114 % of control | dose: 32.0 mg/kg/injection, schedule: Q01DX009 (ip), vehicle: saline with Tween-80 110 % of control | dose: 64.0 mg/kg/injection, schedule: Q01DX009 (ip), vehicle: saline with Tween-80 115 % of control

Cc1ccc(S(=O)(=O)NC(=O)N2CCc3ccccc32)cc1
inactive: [4] 105 % of control | [5] 105 % of control | [6] 93 % of control
